Positions of bridges follow the written chain, without caps; N, C: chain ends. No end group written: not given here.
What was measured:
[1] = molecular target: T1, human SLC-1 (Homo sapiens, UniProt Q99705); test: Receptor binding test using [125I]-labeled MCH(4-19) and human SLC-1-expression CHO cell membrane fraction; conditions: various membrane fraction concentrations; FIG. 9
T1 construct: expressed in transfected cells; host or cells: CHO dhfr- cells, plasmid pAKK0-hSLC-1(S) or pAKK0-hSLC-1(L)
Protocol: The cell membrane fraction prepared from human SLC-1-expression CHO cells according to EXAMPLE 16 was diluted with an assay buffer (25 mM Tris-HCl, 1 mM EDTA (ethylene diamine tetra acetic acid), 0.1% BSA (bovine serum albumin), 0.25 mM PMSF (phenylmethylsulfonyl fluoride), 1 μg/ml pepstatin, 20 μg/ml leupeptin, 10 μg/ml phosphoramidon, pH 7.5) in various concentration.

[2] = molecular target: T2, rat SLC-1 (Rattus norvegicus, UniProt P97639); test: cAMP synthesis inhibitory activity on rat SLC-1-expression CHO cells (forskolin-stimulated, cAMP EIA); format: cell-based; conditions: 2 μM forskolin
T2 construct: expressed in transfected cells; host or cells: CHO dhfr- cells, plasmid pAKK0-SLC-1, mainly clone #44
Protocol: The CHO/SLC-1 cells prepared in EXAMPLE 4 and mock CHO cells were inoculated on a 24-well plate in 5×10^4 cells/well. After incubation for 48 hours, the cells were washed with Hanks' balanced salt solution (pH 7.4) supplemented with 0.2 mM 3-isobutylmethylxanthine, 0.05% BSA and 20 mM HEPES (hereinafter Hanks' balanced salt solution (pH. 7.4) supplemented with 0.2 mM 3-isobutylmethylxanthine, 0.05% BSA and 20 mM HEPES is referred to as a reaction buffer). Thereafter, 0.5 ml of the reaction buffer was added to the cells, which was kept warm in the medium for 30 minutes. The reaction buffer was removed and 0.25 ml of a fresh reaction buffer was added to the cells. Then, 0.25 ml of the reaction buffer containing the HPLC fraction and 2 μM for skolin was added to the cells followed by reacting at 37° C. for 24 minutes. By adding 100 μl of 20% perchloric acid, the reaction was terminated. The reaction mixture was then allowed to stand on ice for an hour to extract intracellular cAMP. The amount of cAMP in the extract was measured using a cAMP EIA kit (Amersham Pharmacia Biotech). As a result, the cAMP synthesis inhibitory activity specific to the CHO/SLC-1 cells was detected in fractions #33, #34 and #35 (FIG. 1). In FIG. 1, taking as 100% the amount obtained by subtracting the intracellular cAMP amount when adding the reaction buffer from the intracellular cAMP amount when adding the forskolin-containing reaction buffer, the cAMP synthesis inhibitory activity was expressed by % in terms of the intracellular cAMP amount obtained by subtracting the intracellular cAMP amount when adding the reaction buffer from the intracellular cAMP amount when adding the HPLC fraction (a 1 μl aliquot of each fraction diluted to 100-fold with DMSO was added).
The CHO/SLC-1 cells selected in EXAMPLE 4 were inoculated on a 24-well plate in 5×10^4 cells/well followed by cultivation for 48 hours. […] The amount of cAMP in the extract was measured using cAMP EIA kit (Amersham Pharmacia Biotech).

[3] = molecular target: T1, human SLC-1; test: cAMP synthesis inhibitory activity on human SLC-1-expression CHO cells; format: cell-based; conditions: human SLC-1 expression cells (CHO/hSLC-1(S) or CHO/hSLC-1(L)), 2 μM forskolin
Protocol: The CHO/hSLC-1(S) strain or the CHO/hSLC-1(L) strain, which was human SLC-1-expression CHO cells selected in EXAMPLE 13, was inoculated on a 24-well plate in 5×10^4 cells/well followed by cultivation for 48 hours. The cells were then washed with Hanks' balanced salt solution (pH 7.4) containing 0.2 mM 3-isobutylmethylxanthine, 0.05% BSA and 20 mM HEPES (hereinafter Hanks' balanced salt solution (pH 7.4) containing 0.2 mM 3-isobutylmethylxanthine, 0.05% BSA and 20 mM HEPES is referred to as a reaction buffer). Subsequently, 0.5 ml of the reaction buffer was added to the cells, which was maintained in the medium for 30 minutes. The reaction buffer was removed and 0.25 ml of a fresh reaction buffer was added to the cells. […] By adding 100 μl of 20% perchloric acid, the reaction was terminated. Next, the reaction mixture was allowed to stand on ice for an hour to extract intracellular cAMP. The amount of cAMP in the extract was measured using cAMP EIA kit (Amersham Pharmacia Biotech).

[4] = molecular target: T1, human SLC-1; test: GTPγS binding activity using human SLC-1-expression CHO cell membrane fraction (Example 16); format: biochemical
Protocol: A human SLC-1-expression CHO cell membrane fraction was prepared by the following procedure. Human SLC-1-expression CHO cells (1×10^8 cells) were suspended in phosphate buffered saline (pH 7.4) supplemented with 5 mM EDTA (ethylene diamine tetra acetic acid) followed by centrifugation. after 10 ml of a homogenate buffer (10 mM NaHCO3, 5 mM EDTA, pH 7.5) was added to the cell pellets, the mixture was homogenized with a polytron homogenizer. the homogenate was then centrifuged at 400×g for 15 minutes. the resulting supernatant was further centrifuged at 100,000×g for an hour to give membrane fraction precipitates. the precipitates were suspended in 2 ml of an assay buffer (50 mM Tris-HCl (pH 7.5), 1 mM EDTA, 0.1% BSA (bovine serum albumin), 10 mM MgCl2, 100 mM NaCl, 1 mM GDP (guanosine 5′-diphosphate), 0.25 mM PMSF (phenylmethylsulfonyl fluoride), 1 μg/ml pepstatin, 20 μg/ml leupeptin, 10 μg/ml phosphoramidon] and the suspension was centrifuged at 100,000×g for an hour. the cell membrane recovered as precipitates was resuspended in 20 ml of the assay buffer. after dispensing, the suspension was stored at −80° C., which may be thawed every time at use.

[5] = molecular target: T2, rat SLC-1; test: Arachidonic acid metabolite release activity on rat SLC-1-expression CHO cells; format: cell-based
Protocol: The CHO/SLC-1 cells selected in EXAMPLE 4 were inoculated on a 24-well plate in 5×10^4 cells/well. After incubation for 24 hours, [^3H] arachidonic acid was added to each well in 0.25 μCi/well. Sixteen hours after the addition of [^3H] arachidonic acid, the cells were washed with Hanks' balanced salt solution (pH7.4) containing 0.05% BSA and 20 mM HEPES. […] Hereinafter Hanks' balanced salt solution (pH 7.4) containing 0.05% BSA and 20 mM HEPES is referred to as a reaction buffer. After incubating at 37° C. for 60 minutes, 400 μl of the reaction solution was charged in a scintillator and the amount of [^3H]arachidonic acid metabolites released into the reaction solution was measured using a scintillation counter.

[6] = molecular target: T2, rat SLC-1; test: GTPγS binding activity to rat SLC-1-expression CHO cell membrane fraction (Example 9); format: biochemical
Protocol: First, preparation of the membrane fraction is described. To 1×10^8 CHO/SLC-1 cells was added 10 ml of a homogenate buffer (10 mM NaHCO3, 5 mM EDTA, 0.5 mM PMSF, 1 μg/ml pepstatin, 4 μg/ml E64, 20 μg/ml leupeptin), followed by cell disruption with a polytron (12,000 rpm, 1 min.). The disrupted cells were then centrifuged (1,000 g, 15 mins.) to give the supernatant. Next, the supernatant was subjected to ultracentrifugation (Beckman type 30 rotor, 30,000 rpm, 1 hour). The resulting precipitate was used as a rat SLC-1-expression CHO cell membrane.
The GTPyS binding activity was assayed as follows. The rat SLC-1-expression CHO cell membrane fraction was diluted with a buffer for membrane dilution (50 mM Tris-hydrochloride buffer (pH 7.4), 5 mM MgCl2, 150 mM NaCl, 1 μM GDP) to make a cell membrane fraction solution for assay having a protein concentration of […]. […] The resulting solution mixture was kept at 25° C. for an hour. The mixture was filtrated through a filter. After washing twice with 1.5 ml of a washing buffer (50 mM Tris-hydrochloride buffer (pH 7.4), 5 mM MgCl2, 1 mM EDTA, 0.1% BSA), radioactivity of the filter was measured using a liquid scintillation counter.

[7] = molecular target: T1, human SLC-1; test: Arachidonic acid metabolite release activity on human SLC-1-expression CHO cells; format: cell-based; conditions: human SLC-1 expression cells (CHO/hSLC-1(S) or CHO/hSLC-1(L))
Protocol: The CHO/hSLC-1(S) strain or the CHO/hSLC-1(L) strain, which was human SLC-1-expression CHO cells selected in EXAMPLE 13, were inoculated on a 24-well plate in 5×10^4 cells/well. After incubation for 24 hours, [^3H] arachidonic acid was added in 0.25 μCi/well. Sixteen hours after the addition of [^3H] arachidonic acid, the cells were washed with Hanks' balanced salt solution (pH 7.4) containing 0.05% BSA and 20 mM HEPES. […] Hereinafter, Hanks' balanced salt solution (pH7.4) containing 0.05% BSA and 20 mM HEPES is referred to as a reaction buffer. After incubating at 37° C. for 60 minutes, 400 μl of the reaction solution was charged in a scintillator and the amount of [^3H] arachidonic acid metabolites released into the reaction solution was measured using a scintillation counter.

T2 sequence (P97639 whole entry): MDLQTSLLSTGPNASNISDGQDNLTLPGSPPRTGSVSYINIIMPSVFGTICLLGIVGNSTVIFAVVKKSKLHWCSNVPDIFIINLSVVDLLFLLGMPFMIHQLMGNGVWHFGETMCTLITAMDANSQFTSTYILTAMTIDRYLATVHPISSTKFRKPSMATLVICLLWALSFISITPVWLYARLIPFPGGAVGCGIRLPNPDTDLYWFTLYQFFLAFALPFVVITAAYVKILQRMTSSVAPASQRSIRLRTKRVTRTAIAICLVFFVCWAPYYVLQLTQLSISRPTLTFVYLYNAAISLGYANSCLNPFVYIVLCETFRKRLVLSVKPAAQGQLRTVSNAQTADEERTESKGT
T1 sequence (Q99705 with tags, fused parts or gaps): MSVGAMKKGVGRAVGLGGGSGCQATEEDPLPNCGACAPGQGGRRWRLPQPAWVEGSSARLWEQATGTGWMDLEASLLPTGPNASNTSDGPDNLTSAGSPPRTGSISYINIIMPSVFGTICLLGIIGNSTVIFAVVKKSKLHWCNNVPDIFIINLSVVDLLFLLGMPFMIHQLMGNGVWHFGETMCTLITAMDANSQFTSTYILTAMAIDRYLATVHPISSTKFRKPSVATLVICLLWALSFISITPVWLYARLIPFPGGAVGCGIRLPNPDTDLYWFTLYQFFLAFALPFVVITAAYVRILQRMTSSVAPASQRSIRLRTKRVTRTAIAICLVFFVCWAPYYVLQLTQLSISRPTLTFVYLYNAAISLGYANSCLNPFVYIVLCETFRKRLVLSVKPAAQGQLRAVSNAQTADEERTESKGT

## [^125I]-[N-(3-(4-Hydroxy-3-iodophenyl)propionyl)-Met^4]-MC H(4-19) ({3‑(4-hydroxy-3-(125I)iodophenyl)propionyl}-MLRCMLGRVYRPCWQV; disulfide 4-13) [[^125I]-labeled MCH(4-19)]
[1]
  specific binding (SB) to the cell membrane fraction: recognized dependent on the concentration of the membrane fraction

## CSCC[C@@H]1NC(=O)[C@@H](NC(=O)[C@H](CCCNC(=N)N)NC(=O)[C@H](CC(C)C)NC(=O)[C@H](CCSC)NC(=O)[C@H](CC(=O)O)NC(=O)[C@H](Cc2ccccc2)NC(=O)[C@@H](N)CC(=O)O)CSSC[C@@H](C(=O)N[C@@H](Cc2c[nH]c3ccccc23)C(=O)N[C@@H](CCC(N)=O)C(=O)N[C@H](C(=O)O)C(C)C)NC(=O)[C@@H]2CCCN2C(=O)[C@H](CCCNC(=N)N)NC(=O)[C@H](Cc2ccc(O)cc2)NC(=O)[C@H](C(C)C)NC(=O)[C@H](CCCNC(=N)N)NC(=O)CNC(=O)[C@H](CC(C)C)NC1=O [MCH]
[2]
  concentration at which the amount of intracellular cAMP was obviously reduced: 0.1 nM
[2]; FIG. 5
  cAMP synthesis (production) inhibitory activity, dose dependence: decreased dose-dependently
[2]; FIG. 5, listed as rat MCH
  cAMP synthesis (production) inhibitory activity, dose dependence: showed the inhibitory activity dose-dependently
[3]
  amount of intracellular cAMP, dose dependence: decreased dose-dependently
[4]
  amount of [35S]-GTPγS bound, dose dependence: increased dose-dependently
[5]; 37° C. 60 minutes
  concentration at which apparent release of arachidonic acid metabolites occurred: 3 nM
[5]; FIG. 6
  arachidonic acid metabolite release, dose dependence: dose-dependently released
[6]
  amount of [35S]-GTPγS bound to the membrane fraction, dose dependence: dose-dependently increased
[6]; 25° C. 1 hour, read-out: concentration inducing 50% binding of [35S]-GTPγS
  EC50: ~0.5 nM
[7]
  arachidonic acid metabolite release activity, dose dependence: showed the arachidonic acid metabolite release activity dose-dependently

Source: patent US6991908B1, “Antiobestic agents methods for screening antiobestic agents and kits comprising same” (Takeda Chemical Industries, Ltd., priority 1998, dated 2006)
